Like-named read-outs stand apart in the source and are kept apart here.
Legend:
[1] = tested on: db/db mice; test: Study for glucose lowering effect in db/db mouse; format: in vivo; conditions: for inhibition in vivo at 0.3 mg/kg: Mus musculus; for Percent reduction of blood glucose (%) 6 hours after administration / inhibition in vivo at 0.3 mg/kg: 6 hours
Method: Study for Glucose Lowering Effect in dB/dB Mouse
A study for glucose lowering effect was conducted using db/db mice (purchased from Clea Japan, Inc., male, 9 to 11 weeks old), type 2 diabetic model mice. On the day of the study, body weights and blood glucose levels were measured prior to the start of testing. Measurement of the blood glucose levels was performed using a simple blood glucose meter (manufactured by Bayer HealthCare, Dexter-Z II). The mice were allocated to some groups consisting of 5 mice each so that homogeneity of body weights or blood glucose levels among groups would be ensured. Blood collection was carried out by making an incision on the tip of the tail and taking the blood therefrom. On the day of the study, the test compounds were suspended in 0.5% carboxymethylcellulose solution (CMC solution), and the dosing solutions of which concentration was adjusted to either 0.3 mg/10 mL or 3 mg/10 mL were prepared. The dosing solutions were orally administered by gavage for mice in 10 mL/kg. To the control group, only a 0.5% CMC solution was orally administered in 10 mL/kg. Blood was collected prior to or sequentially after administration of test compounds by above method. The blood glucose levels were determined using a hexokinase method (AutoSera S GLU, manufactured by Daiichi Pure Chemicals Co., Ltd.). A percent reduction of blood glucose relative to control group at each time point after administration of test compounds was calculated by the following equation.
Percent reduction of blood glucose (%)={blood glucose level in the control group (mg/dL)-blood glucose level in the test compound group (mg/dL)}/blood glucose level in the control group (mg/dL)×100

[2] = target: T1, human SGLT2 (Homo sapiens, UniProt P31639); test: Inhibitory activity against methyl-α-D-glucopyranoside uptake, CHO cells stably expressing human SGLT2; format: cell-based; conditions: inhibition of SGLT2, Table 2-1; read-out: IC50 value
T1 construct: expressed in transfected cells; host or cells: CHO-K1
T1 sequence (P31639 1-672): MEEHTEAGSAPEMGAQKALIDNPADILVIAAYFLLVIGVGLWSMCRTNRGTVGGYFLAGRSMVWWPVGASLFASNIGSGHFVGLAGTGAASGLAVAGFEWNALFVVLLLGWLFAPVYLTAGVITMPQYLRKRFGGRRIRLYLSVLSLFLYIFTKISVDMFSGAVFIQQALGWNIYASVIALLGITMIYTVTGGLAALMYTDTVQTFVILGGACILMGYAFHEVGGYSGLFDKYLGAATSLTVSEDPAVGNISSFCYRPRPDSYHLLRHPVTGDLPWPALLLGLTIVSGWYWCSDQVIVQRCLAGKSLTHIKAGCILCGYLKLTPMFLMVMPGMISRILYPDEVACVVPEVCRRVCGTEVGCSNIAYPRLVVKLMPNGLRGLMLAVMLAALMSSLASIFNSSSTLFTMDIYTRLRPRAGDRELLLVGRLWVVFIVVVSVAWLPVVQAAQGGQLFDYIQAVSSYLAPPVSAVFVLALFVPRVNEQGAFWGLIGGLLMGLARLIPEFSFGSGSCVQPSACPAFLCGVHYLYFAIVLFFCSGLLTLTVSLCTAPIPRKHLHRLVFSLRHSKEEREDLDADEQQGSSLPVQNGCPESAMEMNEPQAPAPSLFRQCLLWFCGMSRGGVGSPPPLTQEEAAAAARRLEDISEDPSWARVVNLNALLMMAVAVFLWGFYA
Excerpt: Evaluation of inhibitory activity against methyl-α-D-glucopyranoside uptake of human Na^+-glucose cotransporter (SGLT1 and SGLT2)
2) Construction of Human SGLT2 Expression Vector
Human SGLT2 cDNA was amplified by PCR with a cDNA library derived from human kidney (Clontech) as a template, synthetic DNA primers and KOD+ DNA Polymerase. The amplified cDNA was inserted into pcRII-Topo vector by using a Topo TA Cloning Dual Promoter kit. E. coli competent cells (TPO10) were transformed with the plasmid vector, cultured in LB medium containing ampicillin (50 mg/L) to grow ampicillin-resistant clones. The plasmid vector containing human SGLT2 cDNA was purified from the clone in a standard manner. Human SGLT2 cDNA added restriction enzyme recognition sites (Xho I at 5′-end, Hind III at 3′-end) was amplified by PCR with the plasmid vector as a template, synthetic DNA primers containing an additional restriction enzyme recognition site and KOD+ DNA Polymerase. This amplified cDNA was digested with Xho I and Hind III, and ligated into expression vector pcDNA3.1(−) digested with Xho I and Hind III by using a Rapid DNA Ligation kit. E. coli competent cells (DH5α) were transformed with the ligated expression vector and grown in ampicillin-containing LB medium. Human SGLT2 expression vector was purified from the ampicillin-resistant clone in a standard manner.
3) Establishment of Cell Lines Stably Expressing Human SGLT1 or Human SGLT2
The human SGLT1 expression vector or the human SGLT2 expression vector was digested with the restriction enzyme Pvu I and transfected into CHO-Kl cells with FuGENE (Roche Diagonostics). After the transfection, the cells were cultured at 37° C. in the presence of 5% CO2 for about 3 weeks in DMEM medium (Gibco) containing penicillin (50 U/mL, SIGMA), streptomycin (50 mg/L, SIGMA), geneticin (200 mg/L, Nacalai Tesque, Inc., Japan) and 20% fetal bovine serum to obtain geneticin-resistant clones. Among these clones, clones stably expressing human SGLT1 or human SGLT2 were selected by the evaluating the sodium-dependent uptake activity of sugar (methyl-α-D-glucopyranoside).
4) Evaluation of Inhibitory Activity Against methyl-α-D-glucopyranoside uptake
Cell lines stably expressing human SGLT1 or human SGLT2 CHO were seeded in 96-well culture plates at a density of 30000 to 40000 cells/well and cultured for 4 to 6 days. The medium in these plates was removed and replaced by 150 μL/well pretreatment buffer (i.e., a buffer containing 140 mM choline chloride, 2 mM potassium chloride, 1 mM calcium chloride, 1 mM magnesium chloride, 10 mM 2-[4-(2-hydroxyethyl)-1-piperazinyl]ethanesulfonic acid and tris(hydroxymethyl)aminomethane, pH 7.4), and the plates were incubated at 37° C. for 20 minutes. The pretreatment buffer in the plates was removed, replaced by 50 μL/well fresh pretreatment buffer, and the plates were incubated at 37° C. for 20 minutes. Methyl-α-D-(U—^14C)glucopyranoside (6.3 mL, Amersham Pharmacia Biotech, 200 mCi/L) was added to and mixed with 100 mL buffer (i.e., a buffer containing 140 mM sodium chloride, 2 mM potassium chloride, 1 mM calcium chloride, 1 mM magnesium chloride, 1 mM methyl-α-D-glucopyranoside, 10 mM [4-(2-hydroxyethyl)-1-piperazinyl]ethanesulfonic acid and tris(hydroxymethyl)aminomethane, pH 7.4), which was used as uptake buffer. Test compounds were dissolved into uptake buffer and these test compound solutions were used for evaluating inhibitory activity. Uptake buffer without a test compound was used as a control solution. Moreover, for use in measuring baseline uptake in the absence of sodium, sodium-free solution was prepared in the same manner to contain 140 mM choline chloride instead of sodium chloride. The pretreatment buffer was removed from each well of the plates and replaced by 35 μL/well test compound solutions, control solution or sodium-free solution, and the plates were incubated at 37° C. for 45 minutes. […]

[3] = oral, 0.3 mg/kg, relative to control group, Table 3-2
[4] = oral, 3.0 mg/kg, relative to control group, Table 3-2
[5] = po, 0.3 mg/kg administration, read-out: reduction of blood glucose 6 hours after administration
[6] = oral, 0.3 mg/kg, relative to control group, Table 3-1, read-out: Percent reduction of blood glucose (%) 6 hours after administration

IC50 [2] | Structure (SMILES) | inhibition in vivo at 0.3 mg/kg [1, 5] | further results
– | CC(C)c1ccc(Cc2ccc3c(c2)C2(OC3)OC(CO)C(O)C(O)C2O)cc1 (stereo not drawn) [Comparative Compound 2, 1,1-anhydro-1-C-[5-(4-isopropylphenyl)methyl-2-(hydroxymethyl)phenyl]-β-glucopyranose, reference compound] | – | Percent reduction of blood glucose (%) 6 hours after administration ([1]; oral, 0.3 mg/kg, relative to control group, Table 3-1): 16%; Percent reduction of blood glucose (%) 6 hours after administration [1, 3]: 16%; Percent reduction of blood glucose (%) 24 hours after administration [1, 3]: 4.9%; Percent reduction of blood glucose (%) 6 hours after administration [1, 4]: 53%; Percent reduction of blood glucose (%) 24 hours after administration [1, 4]: 13%
1.2 nM | Cc1ccc(Cc2cc3c(cc2Cl)CO[C@]32O[C@H](CO)[C@@H](O)[C@H](O)[C@H]2O)cc1 [Example 2, (1S,3′R,4′S,5′S,6′R)-5-chloro-3′,4′,5′,6′-tetrahydro-6′-(hydroxymethyl)-6-[(4-methylphenyl)methyl]-spiro[isobenzofuran-1(3H),2′-[2H]pyran]-3′,4′,5′-triol] | – | –
1.3 nM | CSc1ccc(Cc2cc3c(cc2Cl)CO[C@]32O[C@H](CO)[C@@H](O)[C@H](O)[C@H]2O)cc1 [Example 3, (1S,3′R,4′S,5′S,6′R)-5-chloro-3′,4′,5′,6′-tetrahydro-6′-(hydroxymethyl)-6-[(4-(methylthio)phenyl)methyl]-spiro[isobenzofuran-1(3H),2′-[2H]pyran]-3′,4′,5′-triol] | – | –
1 nM | COc1ccc(Cc2cc3c(cc2Cl)CO[C@]32O[C@H](CO)[C@@H](O)[C@H](O)[C@H]2O)cc1 [Example 4, (1S,3′R,4′S,5′S,6′R)-5-chloro-3′,4′,5′,6′-tetrahydro-6′-(hydroxymethyl)-6-[(4-methoxyphenyl)methyl]-spiro[isobenzofuran-1(3H),2′-[2H]pyran]-3′,4′,5′-triol] | – | –
1.3 nM | OC[C@H]1O[C@]2(OCc3cc(Cl)c(Cc4ccc(Cl)cc4)cc32)[C@H](O)[C@@H](O)[C@@H]1O [Example 6, (1S,3′R,4′S,5′S,6′R)-5-chloro-6-[(4-chlorophenyl)methyl]-3′,4′,5′,6′-tetrahydro-6′-(hydroxymethyl)-spiro[isobenzofuran-1(3H),2′-[2H]pyran]-3′,4′,5′-triol] | ≥ 25% | –
1.2 nM | OC[C@H]1O[C@]2(OCc3cc(Cl)c(Cc4ccc(CC(F)F)cc4)cc32)[C@H](O)[C@@H](O)[C@@H]1O [Example 10, (1S,3′R,4′S,5′S,6′R)-5-chloro-6-[(4-(2,2-difluoroethyl)phenyl)methyl]-3′,4′,5′,6′-tetrahydro-6′-(hydroxymethyl)-spiro[isobenzofuran-1(3H),2′-[2H]pyran]-3′,4′,5′-triol] | ≥ 25% | –
1.9 nM | OC[C@H]1O[C@]2(OCc3cc(Cl)c(Cc4ccc(OC(F)(F)F)cc4)cc32)[C@H](O)[C@@H](O)[C@@H]1O [Example 11, (1S,3′R,4′S,5′S,6′R)-5-chloro-6-[(4-trifluoromethoxyphenyl)methyl]-3′,4′,5′,6′-tetrahydro-6′-(hydroxymethyl)-spiro[isobenzofuran-1(3H),2′-[2H]pyran]-3′,4′,5′-triol] | – | inhibition in vivo at 0.3 mg/kg [1, 6]: 45%
1.5 nM | CC(=O)c1ccc(Cc2cc3c(cc2Cl)CO[C@]32O[C@H](CO)[C@@H](O)[C@H](O)[C@H]2O)cc1 [Example 12, (1S,3′R,4′S,5′S,6′R)-6-[(4-acetylphenyl)methyl]-5-chloro-3′,4′,5′,6′-tetrahydro-6′-(hydroxymethyl)-spiro[isobenzofuran-1(3H),2′-[2H]pyran]-3′,4′,5′-triol] | – | inhibition in vivo at 0.3 mg/kg [1, 6]: 27%
1.7 nM | OC[C@H]1O[C@]2(OCc3cc(Cl)c(Cc4ccc(C(F)(F)F)cc4)cc32)[C@H](O)[C@@H](O)[C@@H]1O [Example 13, (1S,3′R,4′S,5′S,6′R)-5-chloro-6-[(4-trifluoromethylphenyl)methyl]-3′,4′,5′,6′-tetrahydro-6′-(hydroxymethyl)-spiro[isobenzofuran-1(3H),2′-[2H]pyran]-3′,4′,5′-triol] | ≥ 25% | –
3.4 nM | CC(C)(C)c1ccc(Cc2cc3c(cc2Cl)CO[C@]32O[C@H](CO)[C@@H](O)[C@H](O)[C@H]2O)cc1 [Example 14, (1S,3′R,4′S,5′S,6′R)-6-[(4-tert-butylphenyl)methyl]-5-chloro-3′,4′,5′,6′-tetrahydro-6′-(hydroxymethyl)-spiro[isobenzofuran-1(3H),2′-[2H]pyran]-3′,4′,5′-triol] | ≥ 25% | –
1.4 nM | OC[C@H]1O[C@]2(OCc3cc(Cl)c(Cc4cc5ccccc5s4)cc32)[C@H](O)[C@@H](O)[C@@H]1O [Example 28, (1S,3′R,4′S,5′S,6′R)-6-[(benzothiophen-2-yl)methyl]-5-chloro-3′,4′,5′,6′-tetrahydro-6′-(hydroxymethyl)-spiro[isobenzofuran-1(3H),2′-[2H]pyran]-3′,4′,5′-triol] | – | –
1.5 nM | CCc1ccc(Cc2cc3c(cc2Cl)CO[C@]32O[C@H](CO)[C@@H](O)[C@H](O)[C@H]2O)s1 [Example 29, (1S,3′R,4′S,5′S,6′R)-5-chloro-6-[(5-ethylthiophen-2-yl)methyl]-3′,4′,5′,6′-tetrahydro-6′-(hydroxymethyl)-spiro[isobenzofuran-1(3H),2′-[2H]pyran]-3′,4′,5′-triol] | – | –

— patent US20110275703A1, “SUBSTITUTED SPIROKETAL DERIVATIVES AND USE THEREOF AS THERAPEUTIC DRUG FOR DIABETES” (CHUGAI SEIYAKU KABUSHIKI KAISHA, priority 2007, published 2011)
